The record followed here is ChEMBL document CHEMBL3608214, “Optimization of Novel Antagonists to the Neurokinin-3 Receptor for the Treatment of Sex-Hormone Disorders (Part II)” (ACS Med Chem Lett, 2015).

Some targets named below: Cytochrome P450 3A4 (Homo sapiens, UniProt P08684); Cytochrome P450 2D6 (Homo sapiens, UniProt P10635); Cytochrome P450 2C9 (Homo sapiens, UniProt P11712); Cytochrome P450 2C19 (Homo sapiens, UniProt P33261).
For series [1], the target named is T1, Neuromedin-K receptor (Rattus norvegicus, UniProt P16177).
T1 sequence (P16177 whole entry): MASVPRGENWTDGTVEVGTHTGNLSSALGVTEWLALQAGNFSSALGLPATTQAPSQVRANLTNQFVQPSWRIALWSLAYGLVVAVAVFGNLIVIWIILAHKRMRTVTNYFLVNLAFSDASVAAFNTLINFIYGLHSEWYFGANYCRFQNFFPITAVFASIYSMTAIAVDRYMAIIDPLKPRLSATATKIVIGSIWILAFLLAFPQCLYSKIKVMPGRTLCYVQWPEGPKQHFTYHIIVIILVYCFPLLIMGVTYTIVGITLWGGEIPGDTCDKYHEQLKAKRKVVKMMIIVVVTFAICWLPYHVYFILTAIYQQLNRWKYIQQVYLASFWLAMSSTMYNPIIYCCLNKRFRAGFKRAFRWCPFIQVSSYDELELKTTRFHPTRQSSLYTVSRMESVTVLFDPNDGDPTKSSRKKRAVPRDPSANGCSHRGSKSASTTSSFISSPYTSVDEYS
Kind of series: Binding affinity to rat NK3R.

Another series concerns Rattus norvegicus. Kind of series: Inhibition of luteinizing hormone release in orally dosed rat. Conditions: po, read-out: MED.
Series [2] has as its target T2, Neuromedin-K receptor (Homo sapiens, UniProt P29371).
T2 sequence (P29371 whole entry): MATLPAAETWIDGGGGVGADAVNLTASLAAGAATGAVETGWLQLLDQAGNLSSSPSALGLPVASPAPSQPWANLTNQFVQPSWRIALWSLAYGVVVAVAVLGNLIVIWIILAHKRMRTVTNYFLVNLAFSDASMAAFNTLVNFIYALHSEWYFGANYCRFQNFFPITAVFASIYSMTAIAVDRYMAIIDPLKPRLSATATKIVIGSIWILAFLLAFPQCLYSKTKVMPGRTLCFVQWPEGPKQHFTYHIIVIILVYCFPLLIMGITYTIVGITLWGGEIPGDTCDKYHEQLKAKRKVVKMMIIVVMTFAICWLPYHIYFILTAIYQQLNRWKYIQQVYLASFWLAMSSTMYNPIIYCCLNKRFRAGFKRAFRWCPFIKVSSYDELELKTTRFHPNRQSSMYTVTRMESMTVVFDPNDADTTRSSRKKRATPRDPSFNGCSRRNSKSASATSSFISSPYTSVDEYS

Series [3] deals with T2, Neuromedin-K receptor. This is another data set of the same source.
Series [4] in a line: Distribution coefficient, log D of the compound at pH 7.4. It is filed as physicochemical. Particulars: octanol/water.
A further series has as its target T3, Cytochrome P450 1A2 (Homo sapiens, UniProt P05177).
T3 sequence (P05177 whole entry): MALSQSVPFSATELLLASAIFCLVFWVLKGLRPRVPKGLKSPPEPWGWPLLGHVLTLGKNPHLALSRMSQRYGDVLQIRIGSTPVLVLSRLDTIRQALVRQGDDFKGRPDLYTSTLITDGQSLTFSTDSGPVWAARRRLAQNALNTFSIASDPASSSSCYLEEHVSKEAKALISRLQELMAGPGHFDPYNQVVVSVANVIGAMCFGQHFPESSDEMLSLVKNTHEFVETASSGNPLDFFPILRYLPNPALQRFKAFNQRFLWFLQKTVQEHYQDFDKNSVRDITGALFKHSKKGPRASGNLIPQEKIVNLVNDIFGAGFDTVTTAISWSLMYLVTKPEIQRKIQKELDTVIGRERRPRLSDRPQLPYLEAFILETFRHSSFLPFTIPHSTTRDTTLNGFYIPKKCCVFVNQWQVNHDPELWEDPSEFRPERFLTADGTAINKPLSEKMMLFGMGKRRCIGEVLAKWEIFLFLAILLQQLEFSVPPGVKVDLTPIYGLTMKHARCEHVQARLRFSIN

A short description of series [5]: Unbound fraction in monkey plasma at 5 mg/kg, po after 90 mins. Particulars: rhesus monkey.
Series [6] in a line: Unbound fraction in rat brain at 1 mg/kg after 60 mins.
Series [7] is described as follows: Ratio of unbound drug concentration in brain to plasma of rat at 1 mg/kg after 60 mins.
Series [8] is described as follows: Volume of distribution at steady state in monkey at 10 mg/kg, iv. Particulars: rhesus monkey, in vivo.
The nature of series [9]: Binding affinity to monkey NK3R.
The test system of another series is Cynomolgus monkey. Kind of series: Inhibition of luteinizing hormone release in orally dosed castrated cynomolgus monkey. Conditions: Macaca fascicularis, po, read-out: MED.
Series [10] concerns the target Voltage-gated inwardly rectifying potassium channel KCNH2 (Homo sapiens, UniProt Q12809).
Series [11] is described as follows: Volume of distribution at steady state in rat at 1 mg/kg, iv. Conditions: in vivo.
Series [12] can be described thus: Half life in rat at 1 mg/kg, iv. Particulars: in vivo.

pIC50, pKi: −log10 of the molar value.

Cytochrome P450 2C9, sequence (P11712 whole entry): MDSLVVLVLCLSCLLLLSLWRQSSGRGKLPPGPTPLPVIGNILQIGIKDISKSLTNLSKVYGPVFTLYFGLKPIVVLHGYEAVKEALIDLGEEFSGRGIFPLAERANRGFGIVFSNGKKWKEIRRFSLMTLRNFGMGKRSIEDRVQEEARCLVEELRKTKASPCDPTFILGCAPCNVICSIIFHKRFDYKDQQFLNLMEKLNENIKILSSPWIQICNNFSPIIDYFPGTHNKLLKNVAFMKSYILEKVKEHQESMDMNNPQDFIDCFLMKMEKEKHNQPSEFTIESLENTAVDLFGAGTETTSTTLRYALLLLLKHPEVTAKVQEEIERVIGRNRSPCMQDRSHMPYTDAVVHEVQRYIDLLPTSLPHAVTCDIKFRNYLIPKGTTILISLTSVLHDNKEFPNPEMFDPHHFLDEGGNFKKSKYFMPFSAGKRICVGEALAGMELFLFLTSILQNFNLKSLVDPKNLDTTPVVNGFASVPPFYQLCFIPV
Cytochrome P450 2C19, sequence (P33261 whole entry): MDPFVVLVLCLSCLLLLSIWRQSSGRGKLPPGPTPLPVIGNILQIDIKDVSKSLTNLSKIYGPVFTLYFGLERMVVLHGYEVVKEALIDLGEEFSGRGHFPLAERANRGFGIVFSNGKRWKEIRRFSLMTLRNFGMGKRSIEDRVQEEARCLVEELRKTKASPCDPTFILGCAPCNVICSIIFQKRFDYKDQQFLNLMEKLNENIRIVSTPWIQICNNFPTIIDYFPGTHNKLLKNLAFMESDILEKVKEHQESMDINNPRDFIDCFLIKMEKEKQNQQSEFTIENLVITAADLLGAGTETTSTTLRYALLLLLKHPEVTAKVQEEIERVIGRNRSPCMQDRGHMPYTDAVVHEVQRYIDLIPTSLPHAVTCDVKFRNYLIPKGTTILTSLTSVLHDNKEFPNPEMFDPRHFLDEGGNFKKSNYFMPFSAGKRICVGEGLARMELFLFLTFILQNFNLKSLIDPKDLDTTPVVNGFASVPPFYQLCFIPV
Cytochrome P450 2D6, sequence (P10635 whole entry): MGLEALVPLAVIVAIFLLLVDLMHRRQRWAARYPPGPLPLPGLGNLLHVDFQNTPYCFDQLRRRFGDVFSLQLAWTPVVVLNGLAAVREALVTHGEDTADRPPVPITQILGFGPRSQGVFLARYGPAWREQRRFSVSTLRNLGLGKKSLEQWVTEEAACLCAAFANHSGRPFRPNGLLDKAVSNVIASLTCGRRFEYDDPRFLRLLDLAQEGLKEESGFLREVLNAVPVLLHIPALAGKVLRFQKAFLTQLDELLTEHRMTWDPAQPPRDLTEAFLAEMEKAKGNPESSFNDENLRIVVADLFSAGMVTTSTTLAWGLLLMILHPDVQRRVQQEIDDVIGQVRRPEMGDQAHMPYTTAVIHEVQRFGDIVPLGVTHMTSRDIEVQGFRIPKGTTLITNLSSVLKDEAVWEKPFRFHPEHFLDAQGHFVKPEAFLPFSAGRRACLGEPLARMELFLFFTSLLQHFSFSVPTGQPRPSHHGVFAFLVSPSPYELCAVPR
Cytochrome P450 3A4, sequence (P08684 whole entry): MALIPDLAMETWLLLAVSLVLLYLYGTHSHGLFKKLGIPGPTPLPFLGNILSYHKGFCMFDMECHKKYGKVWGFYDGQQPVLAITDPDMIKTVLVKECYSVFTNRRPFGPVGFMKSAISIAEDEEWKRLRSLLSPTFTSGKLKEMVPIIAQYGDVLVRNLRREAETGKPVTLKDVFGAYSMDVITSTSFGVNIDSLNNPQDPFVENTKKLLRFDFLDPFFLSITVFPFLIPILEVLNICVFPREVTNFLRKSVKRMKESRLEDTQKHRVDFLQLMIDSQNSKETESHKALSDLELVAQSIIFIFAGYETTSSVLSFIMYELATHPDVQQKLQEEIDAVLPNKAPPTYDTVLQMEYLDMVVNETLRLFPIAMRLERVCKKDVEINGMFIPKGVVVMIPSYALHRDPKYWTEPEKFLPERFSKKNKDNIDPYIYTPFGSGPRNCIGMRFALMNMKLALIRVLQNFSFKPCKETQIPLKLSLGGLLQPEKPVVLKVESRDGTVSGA
Voltage-gated inwardly rectifying potassium channel KCNH2, sequence (Q12809 whole entry): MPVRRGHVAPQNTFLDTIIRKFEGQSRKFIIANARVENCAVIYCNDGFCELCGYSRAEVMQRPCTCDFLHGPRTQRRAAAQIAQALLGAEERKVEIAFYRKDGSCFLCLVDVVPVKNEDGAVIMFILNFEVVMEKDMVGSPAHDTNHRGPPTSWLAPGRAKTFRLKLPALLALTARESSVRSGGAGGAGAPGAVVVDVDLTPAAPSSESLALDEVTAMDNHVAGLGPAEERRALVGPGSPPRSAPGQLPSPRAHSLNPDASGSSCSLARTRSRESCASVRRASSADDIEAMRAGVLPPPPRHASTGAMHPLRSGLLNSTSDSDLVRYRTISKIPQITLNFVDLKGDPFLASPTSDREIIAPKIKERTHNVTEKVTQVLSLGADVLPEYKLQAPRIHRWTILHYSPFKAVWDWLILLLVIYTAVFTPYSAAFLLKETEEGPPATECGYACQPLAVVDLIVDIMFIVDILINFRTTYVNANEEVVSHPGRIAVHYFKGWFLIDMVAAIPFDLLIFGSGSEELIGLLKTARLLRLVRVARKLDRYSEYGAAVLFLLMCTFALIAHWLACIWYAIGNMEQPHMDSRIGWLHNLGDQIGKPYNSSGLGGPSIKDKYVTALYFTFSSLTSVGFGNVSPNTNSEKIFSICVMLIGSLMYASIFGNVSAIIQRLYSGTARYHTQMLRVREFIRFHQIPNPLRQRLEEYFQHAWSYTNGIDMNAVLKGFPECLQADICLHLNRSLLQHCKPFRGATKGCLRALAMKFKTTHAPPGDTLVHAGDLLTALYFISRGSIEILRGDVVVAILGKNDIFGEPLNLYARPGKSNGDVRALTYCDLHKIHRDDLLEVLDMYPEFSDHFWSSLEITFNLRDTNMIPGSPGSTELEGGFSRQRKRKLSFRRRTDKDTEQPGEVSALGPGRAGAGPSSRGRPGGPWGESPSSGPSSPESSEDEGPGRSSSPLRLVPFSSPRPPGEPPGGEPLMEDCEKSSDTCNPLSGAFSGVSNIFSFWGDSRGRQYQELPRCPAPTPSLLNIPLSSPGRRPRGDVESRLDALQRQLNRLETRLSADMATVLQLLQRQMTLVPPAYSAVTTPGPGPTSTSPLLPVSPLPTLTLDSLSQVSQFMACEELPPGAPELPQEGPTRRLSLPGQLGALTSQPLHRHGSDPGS
Description for Cytochrome P450 1A2: Inhibition of CYP1A2 (unknown origin)
Description for Cytochrome P450 2C19: Inhibition of CYP2C19 (unknown origin)
Description for Cytochrome P450 2C9: Inhibition of CYP2C9 (unknown origin)
Description for Cytochrome P450 2D6: Inhibition of CYP2D6 (unknown origin)
Description for Cytochrome P450 3A4: Inhibition of CYP3A4 (unknown origin)

For the compound `Cc1nsc(-c2nnc3n2CCN(C(=O)c2ccc(F)cc2)C3)n1`, the values for the pKi at Neuromedin-K receptor [1] and at Neuromedin-K receptor [2] were 5.69 and 7.00, respectively. For the same compound, in the series on Rattus norvegicus, the minimal effective dose came to 30 mg/kg. Further, on Neuromedin-K receptor [3], the pIC50 is 6.80.
With `Cc1noc(-c2nnc3n2CCN(C(=O)c2ccc(F)cc2)[C@@H]3C)n1`, the logD in series [4] came to 0.7. For the same compound, at Neuromedin-K receptor [2], the pKi was 6.90. The negative logarithm of the IC50 (pIC50) is less than 4.00 against Cytochrome P450 3A4; less than 4.00 against Cytochrome P450 2D6; 4.38 on Cytochrome P450 2C9; 4.47 against Cytochrome P450 2C19; 4.07 at Cytochrome P450 1A2.
For `Cc1nsc(-c2nnc3n2CCN(C(=O)c2ccc(F)cc2)C3(C)C)n1`, the logD in series [4] was found to be 2. Moreover, the pIC50 against Cytochrome P450 3A4 was less than 4.00; on Cytochrome P450 2D6, less than 4.00; on Cytochrome P450 2C9, 4.92; on Cytochrome P450 2C19, 5.40; on Cytochrome P450 1A2 it was 4.29.
In the case of `Cc1nc(-c2nnc3n2CCN(C(=O)c2ccc(-c4cccs4)cc2)[C@@H]3C)cs1`, the logD in series [4] (read-out: logD) is 3.1. The compound further gave an unbound share (fraction unbound) at […] in series [5] of 0.043. In addition, the fraction unbound at 1 h in [6] was determined as 0.028. Further, the Kp uu at 1 h in series [7] was 0.14. The compound further yielded a volume of distribution (Vd) in [8] of 1.52 L/kg. The compound further gave a pKi in [9] of 7.70. In addition, the minimal effective dose in the series with Rattus norvegicus came out at 60 mg/kg; in the series on Cynomolgus monkey, 20 mg/kg. Also, in [10], the IC50 came out at 24000 nM.
On to `CC(C)c1noc(-c2nnc3n2CCN(C(=O)c2ccc(F)cc2)[C@@H]3C)n1`, for which the log distribution coefficient (logD) in [4] was determined as 1.7. For the same compound, the pKi at Neuromedin-K receptor [2] was 7.60. Moreover, at Neuromedin-K receptor [3], the pIC50 was 7.40.
Turning to `Cc1nsc(-c2nnc3n2CCN(C(=O)c2ccccc2)[C@@H]3C)n1`, the negative logarithm of the Ki (pKi) is 6.24 on Neuromedin-K receptor [1] and 7.30 at Neuromedin-K receptor [2]. Moreover, the minimal effective dose with Rattus norvegicus was 30 mg/kg. Besides, at Neuromedin-K receptor [3], the negative-log IC50 (pIC50) was 7.20.
On Neuromedin-K receptor [1], `C[C@@H]1c2nnc(-c3nc(C(F)(F)F)ns3)n2CCN1C(=O)c1ccc(F)cc1` gave a pKi of 7.07. Also, the minimal effective dose with Rattus norvegicus turned out to be 10 mg/kg.
`Cc1nnc(-c2nnc3n2CCN(C(=O)c2ccc(F)cc2)[C@@H]3C)s1` had a logD in [4] of 0.8.
`C[C@@H]1c2nnc(-c3ncns3)n2CCN1C(=O)c1ccc(F)cc1` came in with a log distribution coefficient (logD) in series [4] of 1.1.
As for `Cc1nsc(-c2nnc3n2CCN(C(=O)c2ccc(F)cc2)[C@@H]3CCO)n1`, the negative-log Ki (pKi) is 6.61 on Neuromedin-K receptor [1] and 7.50 at Neuromedin-K receptor [2]. The same compound had a pIC50 against Neuromedin-K receptor [3] of 7.10.
In the case of `Cc1nsc(-c2nnc3n2CCN(C(=O)c2ccc(F)cc2)[C@@H]3C)n1` [FEZOLINETANT], in series [11], the volume of distribution (Vd) was 0.6 L/kg. The same compound yielded a half-life in [12] of 4.65 h. Moreover, the pKi is 6.66 at Neuromedin-K receptor [1] and 7.60 at Neuromedin-K receptor [2]. The same compound showed a negative-log IC50 (pIC50) on Neuromedin-K receptor [3] of 7.70.
Regarding `Cc1nsc(-c2nnc3n2CCN(C(=O)c2ccc(Cl)cc2)[C@@H]3C)n1`, the negative-log Ki (pKi) at Neuromedin-K receptor [2] was 7.70. Besides, the negative logarithm of the IC50 (pIC50) against Neuromedin-K receptor [3] is 7.50.
Consider `C[C@@H]1c2nnc(-c3csc(-c4ccc(F)cc4F)n3)n2CCN1C(=O)c1ccc(-c2cccs2)cc1`, for which the log distribution coefficient (logD) in [4] turned out to be 5.
